Counter-ions that a name gives are not always drawn. Like-named read-outs stand apart in the source and are kept apart here.
Assays:
[1] = test system: mechanically provoked coughing; test: Antitussive activity: mechanically provoked coughing in anaesthetised cats; type: in vivo, cat; settings: for ED50: Felis catus, iv, read-out: ED50 after parallel adjustment (50% reduction in the number of coughs)
Description: The antitussive activity of the compound 6-(p-chlorobenzyl)-3,5,6-trimethyl-2H-3, 4, 5, 6-tetrahydro-oxazine (1,3)-hydrochloride was tested as follows:
33 male and female cats with a body weight of 3.4 to 4.5 kg were anaesthetised with pentobarbital-Na (45 mg/kg as an initial bolus i.p. and then, spread throughout the experiment, several times as required, 7.5 or 15 mg/kg i.v.). Care was taken to keep the animals at about stage 1 to 2 (Guedel) of the tolerance stage.
Coughing fits were provoked mechanically by the insertion of a plastic catheter with a rounded tip, diameter about 1.5 mm, into the trachea as far as the bifurcation. At each time of irritation, a series of 3 stimuli were carried out at intervals of about 30 seconds. The coughing fits were always provoked 5, 25 and 45 minutes after administration of the test substance or vehicle.
The test substance was administered as a solution in 0.9% NaCl solution through a catheter in the V. femoralis. The injected volume was not more than 0.5 ml/kg. Before administration of the substance, the effect of the vehicle was tested on each animal.
By linear regression analysis and linear covariance analysis, the ED50 value (50% reduction in the number of coughs) was determined after parallel adjustment (Table 2).

opiate receptors = test: Test of Binding to the Opiate Receptor: inhibition of 3H-diprenorphine binding; design: species or system rat; settings: up to 100 μM; 0.5 nM 3H-diprenorphine

`CC1CN(C)COC1(C)Cc1ccc(Cl)cc1` (stereo not drawn) [Active substance, 6-(p-chloro-benzyl)-3,5,6-trimethyl-2H-3,4,5,6-tetrahydro-oxazine(1,3)-hydrochloride] was tested, and the “Percentage inhibition of coughing, MW ± SE” value ([1]; 0.5 mg/kg i.v., after 5 minutes, n=5) was 26.7 ± 8.5%, the “Percentage inhibition of coughing, MW ± SE” value ([1]; 0.5 mg/kg i.v., after 25 minutes, n=5) was 16.7 ± 10.5% and the “Percentage inhibition of coughing, MW ± SE” value ([1]; 0.5 mg/kg i.v., after 45 minutes, n=5) was 23.3 ± 10.0%. The “Percentage inhibition of coughing, MW ± SE” value ([1]; 0.705 mg/kg i.v., after 5 minutes, n=5) was 23.3 ± 6.7%, the “Percentage inhibition of coughing, MW ± SE” value ([1]; 0.705 mg/kg i.v., after 25 minutes, n=5) was 13.3 ± 6.2% and the “Percentage inhibition of coughing, MW ± SE” value ([1]; 0.705 mg/kg i.v., after 45 minutes, n=5) was 13.3 ± 3.3%. For the same compound, the “Percentage inhibition of coughing, MW ± SE” value ([1]; 1.0 mg/kg i.v., after 5 minutes, n=5) was 33.3 ± 18.3%, the “Percentage inhibition of coughing, MW ± SE” value ([1]; 1.0 mg/kg i.v., after 25 minutes, n=5) was 40.0 ± 16.3% and the “Percentage inhibition of coughing, MW ± SE” value ([1]; 1.0 mg/kg i.v., after 45 minutes, n=5) was 36.7 ± 3.3%. For the same compound, the “Percentage inhibition of coughing, MW ± SE” value ([1]; 1.41 mg/kg i.v., after 5 minutes, n=5) was 63.3 ± 13.3%, the “Percentage inhibition of coughing, MW ± SE” value ([1]; 1.41 mg/kg i.v., after 25 minutes, n=5) was 53.3 ± 16.2% and the “Percentage inhibition of coughing, MW ± SE” value ([1]; 1.41 mg/kg i.v., after 45 minutes, n=5) was 50.0 ± 18.3%. For the same compound, the “Percentage inhibition of coughing, MW ± SE” value ([1]; 2.0 mg/kg i.v., after 5 minutes, n=5) was 33.3 ± 17.5%, the “Percentage inhibition of coughing, MW ± SE” value ([1]; 2.0 mg/kg i.v., after 25 minutes, n=5) was 53.3 ± 14.3% and the “Percentage inhibition of coughing, MW ± SE” value ([1]; 2.0 mg/kg i.v., after 45 minutes, n=5) was 36.7 ± 17.0%. For the same compound, the “Percentage inhibition of coughing, MW ± SE” value ([1]; 2.83 mg/kg i.v., after 5 minutes, n=5) was 36.7 ± 14.3%, the “Percentage inhibition of coughing, MW ± SE” value ([1]; 2.83 mg/kg i.v., after 25 minutes, n=5) was 43.3 ± 13.5% and the “Percentage inhibition of coughing, MW ± SE” value ([1]; 2.83 mg/kg i.v., after 45 minutes, n=5) was 40.0 ± 11.3%. For the same compound, the “Percentage inhibition of coughing, MW ± SE” value ([1]; 4.0 mg/kg i.v., after 5 minutes, n=5) was 60.0 ± 11.3%, the “Percentage inhibition of coughing, MW ± SE” value ([1]; 4.0 mg/kg i.v., after 25 minutes, n=5) was 63.3 ± 13.3% and the “Percentage inhibition of coughing, MW ± SE” value ([1]; 4.0 mg/kg i.v., after 45 minutes, n=5) was 46.7 ± 9.7%. For the same compound, the “Percentage inhibition of coughing, MW ± SE” value ([1]; 5.64 mg/kg i.v., after 5 minutes, n=5) was 70.0 ± 20.0%, the “Percentage inhibition of coughing, MW ± SE” value ([1]; 5.64 mg/kg i.v., after 25 minutes, n=5) was 70.0 ± 20.0% and the “Percentage inhibition of coughing, MW ± SE” value ([1]; 5.64 mg/kg i.v., after 45 minutes, n=5) was 63.3 ± 17.0%. The “Percentage inhibition of coughing, MW ± SE” value ([1]; 8.0 mg/kg i.v., after 5 minutes, n=3) was 44.4 ± 29.4%, the “Percentage inhibition of coughing, MW ± SE” value ([1]; 8.0 mg/kg i.v., after 25 minutes, n=3) was 50.0 ± 25.5% and the “Percentage inhibition of coughing, MW ± SE” value ([1]; 8.0 mg/kg i.v., after 45 minutes, n=3) was 44.4 ± 20.0%. For the same compound, the ED50 ([1]; 5 min, 5 minutes after administration) was 2.6 mg/kg, the ED50 ([1]; 25 min, 25 minutes after administration) was 2.4 mg/kg and the ED50 ([1]; 0.75 h, 45 minutes after administration) was 3.2 mg/kg. The “effect on the number of mechanically provoked coughs” value ([1]; intravenously, 0.5 to 8 mg/kg) was “reducing the number of mechanically provoked coughs”, the “cough-suppressing effect, doses and testing times at which observed” value ([1]; intravenously, 0.5 to 8 mg/kg, 5, 25 and 45 minutes) was “observed from the lowest administered dose upwards, at every testing time” and the “inhibition of 3H-diprenorphine binding” value (opiate receptors) was “no inhibition”.

Reference: US5114935A, “Substituted 6-benzyl-2H-3,4,5,6-tetrahydro-(1,3)-oxazines” (Dr. Karl Thomae GmbH, priority 1989, dated 1992)
